Data from US4968686A, “Acyclic pyrrolo [2,3-d]pyrimidine analogs as antiviral agents” (The Regents of The University of Michigan, priority 1989, dated 1990).
Where two headings read alike, the source gives them in different places.

Key:
[1] = Drug toxicity control in uninfected mice; assay type: in vivo; conditions: for mortality: mouse, in vivo, ip, read-out: Mortality Percent (Toxicity)
Growth of HFF cells = assay type: cell-based, human; conditions: human, hff cells; 100 μM; 70-hour incubation; read-out: reduction of number of HFF cells
Protocol: Population doubling times and cell viability were measured in uninfected HFF and/or KB cells. Cells were planted in replicate 6-well plastic tissue culture dishes or in 25 cm^2 flasks as described above in part 1. Following an incubation period during which cells attached to the substrate, medium was decanted, the cell sheet rinsed once with HBS, and fresh medium added. The medium consisted of MEM(E) with 1.1 gm NaHCO3 /liter and 10% fetal bovine or calf serum plus appropriate log or half-log concentrations of drug. After additional periods of incubation from 1 to 72 hours at 37° C., cells were harvested by means of 0.05% trypsin plus 0.02% EDTA in a HEPES-buffered salt solution. Cells were enumerated using either a Coulter counter or a hemocytometer and viability determining using trypsan blue dye exclusion.
The effect of these compounds on the growth of human diploid fibroblasts (HFF cells) was less pronounced. During a 70-hour incubation, control cells underwent two doublings. […] A 100 μM concentration reduced the number of cells by less than 10%.

SMILES: Nc1ncnc2c1c(Br)cn2COC(CO)CO [UMJD 183, 4-amino-5-bromo-7-[(1,3-dihydroxy-2-propoxy)methyl]-pyrrolo[2,3-d]pyrimidine]
- Mortality Number (Toxicity) ([1]; 1.9 mg/kg, no virus): 0/15
- Mortality Number (Toxicity) ([1]; 5.6 mg/kg, no virus): 0/15
- MDD (Toxicity) ([1]; 16.7 mg/kg, no virus): 5.0 days
- Mortality Number (Toxicity) ([1]; 16.7 mg/kg, no virus): 1/15
- Mortality Number (Toxicity) ([1]; 50 mg/kg, no virus): 0/15
- toxicity in uninfected animals (in words) ([1]; administered alone to uninfected animals): virtually no toxicity
- deaths in uninfected animals ([1]; all doses together): 1 death in 60 animals
- mortality ([1]; 1.9 mg/kg, no virus): 0%
- mortality ([1]; 5.6 mg/kg, no virus): 0%
- mortality ([1]; 16.7 mg/kg, no virus): 7%
- mortality ([1]; 50 mg/kg, no virus): 0%

SMILES: Nc1ncnc2c1c(Cl)cn2COCCO [UMJD 100, 4-Amino-5-chloro-7-(2-hydroxyethoxymethyl)pyrrolo[2,3-d]-pyrimidine]
- inhibition at 70 h, 100 µM (Growth of HFF cells): < 10%
